Where a name gives a salt, the structure may show the parent alone.
Biological target: T1, P2X7 receptor (Homo sapiens, UniProt Q99572)
T1 construct: 200 μl of a suspension of THP-1 cells; endogenous in cells; host or cells: THP-1 cells
T1 sequence (Q99572 1-595): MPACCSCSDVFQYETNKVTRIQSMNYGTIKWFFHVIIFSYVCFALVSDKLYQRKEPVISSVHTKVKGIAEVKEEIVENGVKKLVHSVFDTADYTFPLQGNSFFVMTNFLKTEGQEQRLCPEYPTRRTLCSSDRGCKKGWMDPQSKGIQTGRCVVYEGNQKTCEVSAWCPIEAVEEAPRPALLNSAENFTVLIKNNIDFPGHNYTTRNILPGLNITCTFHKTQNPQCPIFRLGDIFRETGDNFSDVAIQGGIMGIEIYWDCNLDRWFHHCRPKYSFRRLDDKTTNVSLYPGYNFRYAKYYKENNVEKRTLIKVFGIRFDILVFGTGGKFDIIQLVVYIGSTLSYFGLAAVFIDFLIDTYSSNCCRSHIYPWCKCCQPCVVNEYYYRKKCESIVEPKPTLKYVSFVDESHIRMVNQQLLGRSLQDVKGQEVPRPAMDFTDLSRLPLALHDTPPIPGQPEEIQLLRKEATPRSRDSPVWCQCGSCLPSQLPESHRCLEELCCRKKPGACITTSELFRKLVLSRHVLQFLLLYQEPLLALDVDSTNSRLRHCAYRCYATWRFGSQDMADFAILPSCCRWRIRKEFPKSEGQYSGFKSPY
Assay: P2X7 receptor antagonist test: bbATP-induced ethidium bromide fluorescence in THP-1 cells
Type: cell-based
Settings: bbATP agonist, 37° C. for one hour, negative logarithm of concentration reducing bbATP agonist activity by 50%
Excerpt: Certain compounds such as benzoylbenzoyl adenosine triphosphate (bbATP) are known to be agonists of the P2X7 receptor, effecting the formation of pores in the plasma membrane (Drug Development Research (1996), 37(3), p.126). Consequently, when the receptor is activated using bbATP in the presence of ethidium bromide (a fluorescent DNA probe), an increase in the fluorescence of intracellular DNA-bound ethidium bromide is observed. The increase in fluorescence can be used as a measure of P2X7 receptor activation and therefore to quantify the effect of a compound on the P2X7 receptor.
In this manner, each of the title compounds of the Examples was tested for antagonist activity at the P2X7 receptor. Thus, the test was performed in 96-well flat bottomed microtitre plates, the wells being filled with 250 μl of test solution comprising 200 μl of a suspension of THP-1 cells (2.5×10^6 cells/ml) containing 10^−4M ethidium bromide, 25 μl of a high potassium buffer solution containing 10^−5M bbATP, and 25 μl of the high potassium buffer solution containing 3×10^−5M test compound. The plate was covered with aplastics sheet and incubated at 37° C. for one hour. The plate was then read in a Perkin-Elmer fluorescent plate reader, excitation 520 nm, emission 595 nm, slit widths: Ex 15 nm, Em 20 nm. For the purposes of comparison, bbATP (a P2X7 receptor agonist) and pyridoxal 5-phosphate (a P2X7 receptor antagonist) were used separately in the test as controls. From the readings obtained, a pIC50 figure was calculated for each test compound, this figure being the negative logarithm of the concentration of test compound necessary to reduce the bbATP agonist activity by 50%.

SMILES	IC50
O=C(NCC12CC3CC(CC(C3)C1)C2)c1cc(CCCNCCCO)nc2ccccc12 [Example 168, N-(1-Adamantylmethyl)-2-{3-[(3-hydroxypropyl)amino]propyl}quinoline-4-carboxamide Benzoic Acid Salt]	25.1 nM
Cc1ccc2nc(CCNCCCO)ccc2c1NC(=O)CC12CC3CC(CC(C3)C1)C2 [Example 205, 2-(1-Adamantyl)-N-(2-{2-[(3-hydroxypropyl)amino]ethyl}-6-methylquinolin-5-yl)acetamide Dihydrochloride]	17.8 nM
O=C(CC12CC3CC(CC(C3)C1)C2)Nc1cccc2nc(NCCCO)ccc12 [Example 6, 2-(1-Adamantyl)-N-{2-[(3-hydroxypropyl)amino]quinolin-5-yl}acetamide]	8.91 nM
O=C(CC12CC3CC(CC(C3)C1)C2)Nc1cccc2cnccc12 [Example 160, 2-(1-Adamantyl)-N-isoquinolin-5-ylacetamide]	79.4 nM
CNCCCN(C)c1ccc2c(C(=O)NCC34CC5CC(CC(C5)C3)C4)c(Cl)ccc2n1 [Example 208, N-(1-Adamantylmethyl)-6-chloro-2-{methyl[3-(methylamino)propyl]amino}quinoline-5-carboxamide]	35.5 nM
O=C(CC12CC3CC(CC(C3)C1)C2)Nc1c(Cl)ccc2nc(CN3CCN(CCO)CC3)ccc12 [Example 196, 2-(1-Adamantyl)-N-(6chloro-2-{[4-(2-hydroxyethyl)piperazin-1-yl]methyl}quinlolin-5-yl)acetamide]	18.6 nM
O=C(NCC12CC3CC(CC(C3)C1)C2)c1c(Cl)ccc2nc(CN3CCNCC3)ccc12 [Example 170, N-(1-Adamantylmethyl)-6-chloro-2-(piperazin-1-ylmethyl)quinoline-5-carboxamide Hydrochloride]	26.3 nM
CNCCCc1ccc2c(C(=O)NCC34CC5CC(CC(C5)C3)C4)c(Cl)ccc2n1 [Example 167, N-(1-Adamantylmethyl)-6-chloro-2-[3-(methylamino)propyl]quinoline-5-carboxamide Sesquihydrochloride]	5.01 nM

— patent US20050090524A1, “Novel adamantane derivatives” (priority 2002, published 2005)
